# Assay results reported in US9340577B2, “HLA binding motifs and peptides and their uses” (priority 1992, dated 2016).
# No end group written: not given here.
# How the values were obtained:
# Test in all cases: biochemical
# [1] = target: DRB1*1201 (Homo sapiens, UniProt P01903+P01911, A100R/A169T/D57E/D86V/F55L/H45Y/K41T/L162R/M171V/P40S/Q125H/Q178H/Q39Y/Q99D/R42G/S66L/T262R/V114A/V67L/W38E/Y59H/Y61H/Y89S); assay type: binding
# [2] = target: DRB3*0101 (Homo sapiens, UniProt P01903+P79483); assay type: binding
# [3] = target: DR1 (DRB1*0101) (Homo sapiens, UniProt P01903+P01911, A100R/D57E/F55L/F60I/F76Y/I96L/L162R/M171V/P40L/Q125E/R42F/V115G/Y59C); assay type: binding
# [4] = target: DR4w4 (DRB1*0401) (Homo sapiens, UniProt P01903+P01911, A100K/A169T/F76Y/I96L/K127E/L162R/M171V/N62H/P40V/Q125Y/R42H/S133A/S149N/S66Y/V115G/V209L/W38E); assay type: binding
# [5] = target: DR7 (DRB1*0701) (Homo sapiens, UniProt P01903+P01911, A100R/A102G/A103Q/D57E/D86V/E43K/F76Y/K127E/L162R/M171V/P40G/Q125H/Q99D/R33Q/R42Y/R54Q/S133A/S66F/T210M/V115G/Y107V/Y59L/Y89S); assay type: binding
# [6] = target: DRB1*0405 (Homo sapiens, UniProt P01903+P01911, A100R/A169T/D86S/F76Y/I96L/K127E/L162R/M171V/N62H/P40V/Q125Y/R42H/S133A/S149N/S66Y/V115G/V209L/W38E); assay type: binding
# [7] = target: DRB1*0802 (Homo sapiens, UniProt P01903+P01911, A100R/A103L/A169T/F76Y/H45Y/I96F/K41T/L162R/M171V/P40S/Q125H/Q178H/Q39Y/Q99D/R218S/R42G/S66Y/V115G/W38E); assay type: binding
# [8] = target: DRB1*0901 (Homo sapiens, UniProt P01903+P01911, A100R/A103E/D57H/D86V/F55Y/F60I/F76Y/I96F/K127E/L162R/M171V/P40D/Q125H/Q99R/R33Q/R42F/S133A/S66N/T210M/V115G/W38K/Y107V/Y59G/Y89S); assay type: binding
# [9] = target: DRB1*1302 (Homo sapiens, UniProt P01903+P01911, A100E/A169T/K41T/L162R/M171V/P40S/Q125H/Q178H/Q39Y/Q99D/R42S/S66N/T262R/V115G/W38E/Y61H); assay type: binding
# Chain of DRB1*1302 (P01903 26-254 limits assumed, other chains not shown): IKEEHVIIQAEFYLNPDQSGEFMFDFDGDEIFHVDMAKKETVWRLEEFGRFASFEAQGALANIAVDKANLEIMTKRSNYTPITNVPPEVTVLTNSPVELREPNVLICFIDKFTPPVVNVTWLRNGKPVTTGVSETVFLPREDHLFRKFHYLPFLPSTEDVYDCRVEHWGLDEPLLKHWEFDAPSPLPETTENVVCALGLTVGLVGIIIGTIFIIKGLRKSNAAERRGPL
# [10] = target: DRB1*1501 (Homo sapiens, UniProt P01903+P01911); assay type: binding
# [11] = target: DRB4*0101 (Homo sapiens, UniProt P01903+P13762, G164S); assay type: binding
# [12] = target: DRB1*1101 (Homo sapiens, UniProt P01903+P01911, A100R/A169T/A87E/I96F/K41T/L162R/M171V/P40S/Q125H/Q178H/Q39Y/Q99D/R42S/S66Y/T262R/V115G/W38E)
# Chain of DRB1*1101 (P01903 26-254 limits assumed, other chains not shown): as above
# [13] = target: DRB5*0101 (Homo sapiens, UniProt P01903+Q30154)
Compound,IC50 [1],IC50 [2],IC50 [3],IC50 [4],IC50 [5],IC50 [6],IC50 [7],IC50 [8],IC50 [9],IC50 [10],IC50 [11],IC50 ([12]; Binding affinity DRB1 *1101),IC50 ([13]; Binding affinity DRB5 *0101),IC50 ([12]; DRB1*1101),IC50 ([13]; DRB5*0101)
HPLYNMSLLKHQSLR [Peptide 68.0008],0.095 µM,> 20 µM,–,–,–,–,–,–,–,–,–,–,–,–,–
LDHYENDSKDINSQI [Peptide 1601.29],–,2.05 µM,> 20 µM,> 20 µM,19.9 µM,> 20 µM,> 20 µM,> 20 µM,> 20 µM,> 20 µM,0.554 µM,> 20 µM,> 20 µM,–,–
GNEIFNTSLFEPPPP [Peptide 68.0090],> 20 µM,> 20 µM,> 20 µM,–,> 20 µM,–,> 20 µM,–,–,> 20 µM,–,> 20 µM,> 20 µM,–,–
ADKIYSISMKHPQEM [Peptide 68.0125],9.25 µM,> 20 µM,> 20 µM,–,–,–,–,–,–,–,–,–,> 20 µM,–,–
VILLGRHSLFHPEDT [Peptide 68.0068],0.056 µM,> 20 µM,–,–,> 20 µM,–,–,–,–,–,–,–,–,–,–
DFEVFFQRLGIASGR [Peptide 68.0114],2 µM,> 20 µM,–,–,> 20 µM,–,–,–,–,–,–,–,–,–,–
PHPLYNMSLLKHQSL [Peptide 68.0007],0.86 µM,> 20 µM,–,–,> 20 µM,–,–,–,–,–,–,–,–,–,–
CC[C@H](C)[C@H](NC(=O)[C@@H](N)CCC(=O)O)C(=O)N[C@H](C(=O)N[C@@H](CC(C)C)C(=O)N[C@@H](Cc1c[nH]cn1)C(=O)N[C@@H](CC(C)C)C(=O)N[C@@H](CCC(=O)O)C(=O)N1CCC[C@H]1C(=O)N[C@@H](CCC(N)=O)C(=O)N[C@@H](CC(N)=O)C(=O)N[C@@H](CCC(=O)O)C(=O)N[C@@H](CC(C)C)C(=O)N[C@@H](CC(=O)O)C(=O)N1CCC[C@H]1C(=O)N[C@H](C(=O)O)C(C)C)C(C)C [Peptide 1543.20],> 20 µM,> 20 µM,–,–,–,–,> 20 µM,> 20 µM,–,> 20 µM,–,> 20 µM,> 20 µM,–,–
CC(C)C[C@H](NC(=O)[C@H](CCC(=O)O)NC(=O)[C@H](CCCCN)NC(=O)[C@H](C)NC(=O)[C@H](CC(C)C)NC(=O)[C@@H](NC(=O)[C@H](CO)NC(=O)[C@H](CCCNC(=N)N)NC(=O)[C@@H](N)CC(=O)O)C(C)C)C(=O)N[C@@H](CCCCN)C(=O)N[C@@H](Cc1ccccc1)C(=O)N[C@H](C(=O)N[C@H](C(=O)N[C@@H](CC(C)C)C(=O)N[C@H](C(=O)O)C(C)C)[C@@H](C)O)C(C)C [Peptide 68.0024],0.301 µM,> 20 µM,–,–,–,–,–,–,–,–,–,> 20 µM,–,–,–
LETIYNSQYSNEKWT [Peptide 1601.03],–,> 20 µM,8.61 µM,0.099 µM,> 20 µM,3 µM,> 20 µM,6.1 µM,6.8 µM,0.563 µM,–,> 20 µM,0.208 µM,–,–
CC[C@H](C)[C@H](NC(=O)[C@@H](NC(=O)[C@H](Cc1c[nH]cn1)NC(=O)[C@@H](N)CCCNC(=N)N)C(C)C)C(=O)N[C@@H](Cc1ccc(O)cc1)C(=O)N[C@@H](C)C(=O)N1CCC[C@H]1C(=O)N[C@@H](CO)C(=O)N[C@@H](CO)C(=O)N[C@@H](Cc1c[nH]cn1)C(=O)N[C@@H](CC(N)=O)C(=O)N[C@@H](CCCCN)C(=O)N[C@@H](Cc1ccc(O)cc1)C(=O)N[C@@H](C)C(=O)NCC(=O)O [Peptide 68.0133],7.08 µM,> 20 µM,–,–,> 20 µM,–,–,–,–,–,–,–,–,–,–
TNKFSGYPLYHSVYE [Peptide 68.0116],4.48 µM,> 20 µM,–,–,> 20 µM,–,–,–,> 20 µM,–,–,> 20 µM,–,–,–
YDPLYCESVHNFTLP [Peptide 68.0041],> 20 µM,> 20 µM,–,–,–,–,> 20 µM,–,> 20 µM,–,–,> 20 µM,> 20 µM,–,–
EISFAGIVTKLPTAN [Peptide 89.0174],–,0.07 µM,18.7 µM,–,7.8 µM,> 20 µM,11.3 µM,> 20 µM,–,8.14 µM,> 20 µM,> 20 µM,–,–,–
RVPVSHSFPHPLYNM [Peptide 68.0006],–,> 20 µM,–,> 20 µM,–,–,> 20 µM,–,–,–,–,> 20 µM,–,–,–
NMSLLKHQSLRPDED [Peptide 68.0009],–,> 20 µM,–,> 20 µM,> 20 µM,–,> 20 µM,> 20 µM,> 20 µM,> 20 µM,–,> 20 µM,> 20 µM,–,–
CC[C@H](C)[C@H](NC(=O)[C@@H]1CCCN1C(=O)[C@H](CC(=O)O)NC(=O)[C@@H](NC(=O)[C@@H]1CCCN1C(=O)[C@H](Cc1ccccc1)NC(=O)[C@@H](NC(=O)[C@H](CC(=O)O)NC(=O)[C@@H](NC(=O)[C@@H]1CCCN1C(=O)[C@H](CO)NC(=O)[C@@H](N)CCCNC(=N)N)[C@@H](C)CC)[C@@H](C)O)[C@@H](C)O)C(=O)N[C@@H](CCCCN)C(=O)N[C@@H](CCC(=O)O)C(=O)N[C@@H](CO)C(=O)O [Peptide 68.0026],> 20 µM,> 20 µM,> 20 µM,–,> 20 µM,–,> 20 µM,–,> 20 µM,–,–,> 20 µM,> 20 µM,–,–
CC[C@H](C)[C@H](N)C(=O)N[C@@H](Cc1ccc(O)cc1)C(=O)N[C@@H](CO)C(=O)N[C@H](C(=O)N[C@@H](CO)C(=O)N[C@@H](CCSC)C(=O)N[C@@H](CCCCN)C(=O)N[C@@H](Cc1c[nH]cn1)C(=O)N1CCC[C@H]1C(=O)N[C@@H](CCC(N)=O)C(=O)N[C@@H](CCC(=O)O)C(=O)N[C@@H](CCSC)C(=O)N[C@@H](CCCCN)C(=O)N[C@H](C(=O)N[C@@H](Cc1ccc(O)cc1)C(=O)O)[C@@H](C)O)[C@@H](C)CC [Peptide 68.0126],11.4 µM,> 20 µM,–,–,–,–,–,–,> 20 µM,–,–,–,–,–,–
GIVEQTTTSITSLYQ [Peptide 9000.0054],–,> 95.2 µM,–,–,–,–,–,–,0.014 µM,0.849 µM,2.3 µM,–,–,> 10.5 µM,> 37.6 µM
CC[C@H](C)[C@H](NC(=O)[C@@H]1CCCN1C(=O)[C@H](Cc1c[nH]cn1)NC(=O)[C@@H](NC(=O)[C@@H]1CCCN1C(=O)[C@@H](NC(=O)[C@H](CO)NC(=O)[C@@H]1CCCN1C(=O)[C@H](CC(C)C)NC(=O)CNC(=O)[C@@H](NC(=O)[C@H](C)NC(=O)[C@H](CCC(=O)O)NC(=O)[C@H](C)N)C(C)C)[C@@H](C)CC)C(C)C)C(=O)NCC(=O)O [Peptide 68.0101],0.7 µM,> 20 µM,–,–,–,–,> 20 µM,> 20 µM,–,–,–,> 20 µM,> 20 µM,–,–
CC[C@H](C)[C@H](NC(=O)[C@H](CO)NC(=O)[C@H](CC(C)C)NC(=O)[C@@H](NC(=O)[C@H](CC(C)C)NC(=O)[C@@H](N)CC(=O)O)C(C)C)C(=O)N[C@@H](C)C(=O)N[C@@H](CC(C)C)C(=O)N[C@@H](CO)C(=O)N[C@H](C(=O)NCC(=O)N[C@@H](CS)C(=O)N[C@H](C(=O)NCC(=O)N[C@@H](C)C(=O)O)[C@@H](C)O)C(C)C [Peptide 68.0002],4.92 µM,> 20 µM,–,–,–,–,> 20 µM,–,–,–,–,> 20 µM,> 20 µM,–,–
CC(C)C[C@H](NC(=O)[C@H](CCC(N)=O)NC(=O)[C@H](C)NC(=O)[C@H](CC(N)=O)NC(=O)[C@H](CCCCN)NC(=O)[C@@H](NC(=O)[C@H](CCCCN)NC(=O)[C@H](CC(N)=O)NC(=O)CN)C(C)C)C(=O)N[C@@H](C)C(=O)NCC(=O)N[C@@H](C)C(=O)N[C@@H](CCCCN)C(=O)NCC(=O)N[C@H](C(=O)O)C(C)C [Peptide 68.0097],> 20 µM,> 20 µM,–,–,> 20 µM,–,> 20 µM,–,> 20 µM,> 20 µM,–,> 20 µM,–,–,–
